Data reported in ChEMBL document CHEMBL1201862, “PubChem BioAssay data set” (2004).
The source made the active and inactive calls.

Key:
[1] = biological target: Sphingosine 1-phosphate receptor 1 (Homo sapiens, UniProt P21453); type: functional;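 also: Tango beta-arrestin reporter U2OS cells stimulated with S1P near its EC80; inhibitor potency meaning antagonism of receptor activation by the natural agonist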
[2] = biological target: Genome polyprotein (dengue virus type 2, UniProt P29990); assay: Dengue-2 NS5 methyltransferase inhibitors, primary screen, biochemical, confirmation dose response (AID 588689); type: functional
Genome polyprotein, sequence (P29990 2492-3391 limits assumed): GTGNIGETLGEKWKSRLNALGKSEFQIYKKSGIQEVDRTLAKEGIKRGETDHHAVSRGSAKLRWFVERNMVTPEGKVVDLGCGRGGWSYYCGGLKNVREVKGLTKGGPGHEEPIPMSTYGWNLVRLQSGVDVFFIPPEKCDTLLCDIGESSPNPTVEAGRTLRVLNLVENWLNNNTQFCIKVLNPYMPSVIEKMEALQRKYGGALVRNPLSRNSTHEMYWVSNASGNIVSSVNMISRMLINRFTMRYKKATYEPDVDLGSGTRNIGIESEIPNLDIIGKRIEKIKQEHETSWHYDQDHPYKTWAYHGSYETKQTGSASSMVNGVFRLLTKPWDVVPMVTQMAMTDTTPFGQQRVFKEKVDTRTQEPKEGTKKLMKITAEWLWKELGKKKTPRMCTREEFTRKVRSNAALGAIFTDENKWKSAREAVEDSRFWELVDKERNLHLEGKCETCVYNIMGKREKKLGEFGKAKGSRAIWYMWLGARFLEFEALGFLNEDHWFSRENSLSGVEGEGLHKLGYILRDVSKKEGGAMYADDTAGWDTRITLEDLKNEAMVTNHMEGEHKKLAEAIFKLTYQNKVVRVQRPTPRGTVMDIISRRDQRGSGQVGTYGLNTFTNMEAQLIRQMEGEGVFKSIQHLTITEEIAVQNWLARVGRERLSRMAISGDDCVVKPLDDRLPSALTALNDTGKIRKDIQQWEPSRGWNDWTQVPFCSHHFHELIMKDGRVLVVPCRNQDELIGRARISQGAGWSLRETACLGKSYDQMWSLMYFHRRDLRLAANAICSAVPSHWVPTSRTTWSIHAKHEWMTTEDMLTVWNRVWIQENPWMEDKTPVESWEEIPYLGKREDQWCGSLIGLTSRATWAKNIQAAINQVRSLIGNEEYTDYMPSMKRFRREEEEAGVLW

Sphingosine 1-phosphate receptor 1, sequence (P21453 whole entry): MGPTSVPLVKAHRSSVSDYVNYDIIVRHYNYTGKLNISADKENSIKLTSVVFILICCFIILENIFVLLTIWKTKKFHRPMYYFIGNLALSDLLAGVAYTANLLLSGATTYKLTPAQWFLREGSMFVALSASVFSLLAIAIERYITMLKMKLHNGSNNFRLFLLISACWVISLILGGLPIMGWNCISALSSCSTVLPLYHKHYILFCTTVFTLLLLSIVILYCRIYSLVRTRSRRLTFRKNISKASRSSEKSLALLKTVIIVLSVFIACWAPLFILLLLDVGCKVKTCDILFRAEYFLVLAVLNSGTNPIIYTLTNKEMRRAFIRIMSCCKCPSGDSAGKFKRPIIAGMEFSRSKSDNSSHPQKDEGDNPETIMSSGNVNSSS

## O=C(Nc1ccccc1Cl)/C(Cl)=C(\Cl)[S+]([O-])c1ccccc1 (configuration not stated)
[1]
  IC50: 10.3 µM (not active)

## Cc1ccc(C)c(S(=O)(=O)/N=C2\C=C(NS(=O)(=O)c3ccccc3)C(=O)c3ccccc32)c1
[2]
  IC50: 97.8 µM (active)
